From patent US10214779B2, “Method for identification of anti-HIV human miRNA mimics and miRNA inhibitors and anti-HIV pharmaceutical compounds” (CSIR, priority 2013, dated 2019)
Counter-ions that a name gives are not always drawn. *1 amine or outer side, *2 acyl side, *3 side chain or, on linkers, in order; H or OH if unused. Where a SMILES comes first, the peptide text is derived from it. Bridges are numbered along the chain shown (N, C = ends). Roman numbers before positions name the chains, in order. [ ]: non-standard residue; d: D form. Actinocin(9to1) = Cc1c2oc3c(C)ccc(C(=O)[*:1])c3nc-2c(C(=O)[*:2])c(N)c1=O; NMeV = CN[C@H](C(=O)O)C(C)C; Sar = CNCC(=O)O

Legend:
[1] = system: HIV (Subtype B pseudoviral strain, PSGIII) in GHOST(3) cells; assay: Targeted drug screen, Clearance Screen (drug after HIV infection) in GHOST(3) cells; type: cell-based, HIV-1; settings: infection MOI 0.5 for 48 hour, then drug 24 h, screened at 100 nM, 1 uM and 10 uM
Description: A library of 101 Food and Drug Administration (FDA) approved oncology drugs as well as a library of 192 kinase-inhibitor compounds were screened as potential anti-HIV therapeutics using the GHOST(3) reporter cell line. Drugs were screened at 3 different concentrations of 100 nM, 1 uM and 10 uM. Each library was screened in triplicate at each drug concentration and in the following 3 formats:
This screen format was utilised to identify drugs/compounds that were able to suppress HIV replication in host cells already infected by HIV or drugs/compounds that were able to selectively target HIV-infected cells for apoptosis. GHOST(3) cells were seeded in the wells of a 96 well plate 24 hour prior to infection with the Subtype B pseudoviral strain, PSGIII, at an MOI of 0.5. The infective media was then removed 48 hour post infection and replaced with normal culture media supplemented with a drug/compound at the appropriate concentration. Twenty-four hours post drug treatment, cells were processed for imaging as previously described.
This screen format was used as a control to identify drugs that were broadly cytotoxic. […] GHOST(3) cells were seeded in 96 well plates, 24 hr post seeding, drugs were added to culture medium at the required final concentration. Twenty-four hours post drug treatment cells were processed for imaging as described previously.
Subtype B viral stocks were produced by the dual transfection of HEK293T cells with a PSGIII (Subtype B) viral backbone plasmid which lacks an envelope/packaging protein and a second plasmid expressing an HIV-BAL viral envelope protein (Subtype B). Plasmid transfections were conducted using the FuGene 6 lipid-based transfection reagent (Promega) as per the manufacturer's guidelines. Viral titres were determined using a luciferase readout-assay based on the JC53 cell line and the TCID50 calculation method described by Reed and Muench (1938). GHOST(3) cells were exposed to virions at an MOI of 0.5 for both the miRNA and targeted drug/compound screens. Cells were infected in SFM supplemented with 1× Glutamax (Infecting media) as FBS has previously been described to negatively impact the infection efficiency of HIV.
Cells were washed twice in 1×PBS before fixation with a 3.7% Formaldehyde solution for 30 minutes at room temperature. Cells were washed once with 1× PBS before the addition of Hoechst Nuclear stain (Invitrogen) at 2 uM final concentration in 1×PBS for 30 minutes at room temperature. The Hoechst staining solution was aspirated and replaced with 50 uL of 1×PBS solution before imaging.
Four fields of view (100 um apart) were acquired from the central region of each well imaged. Images were acquired in the 405 and 488 fluorescent channels for each field of view. Wells were imaged using the 20× ewld objective on the Image Xpress Ultra automated confocal microscope system (Molecular Devices). The imaging parameters were kept constant for all replicates of both miRNA and targeted drug/compound screens.
Feature extraction algorithms were utilized in order to extract 16 subcellular measurements from the acquired images. These 16 factors are derived from 15 descriptors previously described by Genovesio et al. 2011 to be relevant indicators of the infective state of host cells, with addition of ‘infection efficiency’ as a descriptor of the percentage of infected cells per treatment well.
A bespoke support vector machine-learning (SVML) pattern recognition algorithm was trained to identify phenotypes of interest using the relevant control wells. […] The transfection of siCD4 and Raltegravir treatment were thus utilised in the miRNA and drug/compound screens respectively as positive controls for the inhibition of HIV-1 replication. […]

[2] = system: HIV (Subtype B pseudoviral strain, PSGIII) in GHOST(3) cells; assay: Targeted drug screen, Phenocopy Screen (drug before HIV infection) in GHOST(3) cells; settings: for Effect (Phenocopy Screen): drug 24 h before infection, MOI 0.5, 48 hour, screened at 100 nM, 1 uM and 10 uM, GHOST(3) cells
Description: GHOST(3) cells were seeded in the wells of a 96 well plate 24 hour prior to addition of a specific oncology drug at the appropriate concentration. Twenty-four hours post drug treatment, the drug supplemented media was removed and replaced with infective media containing the Subtype B pseudoviral strain, PSGIII. Cells were infected at an MOI of 0.5. The infective media was removed 48 hour post infection and cells were processed for imaging as previously described (See Sample Preparation).
Four fields of view (100 um apart) were acquired from the central region of each well imaged. […] Wells were imaged using the 20× ewld objective on the Image Xpress Ultra automated confocal microscope system (Molecular Devices). The imaging parameters were kept constant for all replicates of both miRNA and targeted drug/compound screens.

[3] = biological target: T1, Aurora A (Homo sapiens, UniProt O14965); settings: cited from earlier work
T1 sequence (O14965 1-403): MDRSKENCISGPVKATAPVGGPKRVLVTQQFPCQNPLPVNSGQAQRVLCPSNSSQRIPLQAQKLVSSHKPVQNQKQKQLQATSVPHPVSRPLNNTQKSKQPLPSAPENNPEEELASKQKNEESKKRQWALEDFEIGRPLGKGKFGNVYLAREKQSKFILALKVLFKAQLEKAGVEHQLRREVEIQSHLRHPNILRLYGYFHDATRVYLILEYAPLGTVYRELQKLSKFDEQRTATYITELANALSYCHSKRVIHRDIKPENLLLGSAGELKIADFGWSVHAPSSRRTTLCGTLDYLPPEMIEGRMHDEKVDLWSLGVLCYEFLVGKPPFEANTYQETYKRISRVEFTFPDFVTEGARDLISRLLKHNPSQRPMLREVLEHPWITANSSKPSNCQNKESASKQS

[4] = biological target: Aurora B (Homo sapiens, UniProt Q96GD4); settings: cited from earlier work
[5] = biological target: p110γ (Homo sapiens, UniProt P48736); settings: cited from earlier work
Chain of p110γ (P48736 whole entry, species assumed): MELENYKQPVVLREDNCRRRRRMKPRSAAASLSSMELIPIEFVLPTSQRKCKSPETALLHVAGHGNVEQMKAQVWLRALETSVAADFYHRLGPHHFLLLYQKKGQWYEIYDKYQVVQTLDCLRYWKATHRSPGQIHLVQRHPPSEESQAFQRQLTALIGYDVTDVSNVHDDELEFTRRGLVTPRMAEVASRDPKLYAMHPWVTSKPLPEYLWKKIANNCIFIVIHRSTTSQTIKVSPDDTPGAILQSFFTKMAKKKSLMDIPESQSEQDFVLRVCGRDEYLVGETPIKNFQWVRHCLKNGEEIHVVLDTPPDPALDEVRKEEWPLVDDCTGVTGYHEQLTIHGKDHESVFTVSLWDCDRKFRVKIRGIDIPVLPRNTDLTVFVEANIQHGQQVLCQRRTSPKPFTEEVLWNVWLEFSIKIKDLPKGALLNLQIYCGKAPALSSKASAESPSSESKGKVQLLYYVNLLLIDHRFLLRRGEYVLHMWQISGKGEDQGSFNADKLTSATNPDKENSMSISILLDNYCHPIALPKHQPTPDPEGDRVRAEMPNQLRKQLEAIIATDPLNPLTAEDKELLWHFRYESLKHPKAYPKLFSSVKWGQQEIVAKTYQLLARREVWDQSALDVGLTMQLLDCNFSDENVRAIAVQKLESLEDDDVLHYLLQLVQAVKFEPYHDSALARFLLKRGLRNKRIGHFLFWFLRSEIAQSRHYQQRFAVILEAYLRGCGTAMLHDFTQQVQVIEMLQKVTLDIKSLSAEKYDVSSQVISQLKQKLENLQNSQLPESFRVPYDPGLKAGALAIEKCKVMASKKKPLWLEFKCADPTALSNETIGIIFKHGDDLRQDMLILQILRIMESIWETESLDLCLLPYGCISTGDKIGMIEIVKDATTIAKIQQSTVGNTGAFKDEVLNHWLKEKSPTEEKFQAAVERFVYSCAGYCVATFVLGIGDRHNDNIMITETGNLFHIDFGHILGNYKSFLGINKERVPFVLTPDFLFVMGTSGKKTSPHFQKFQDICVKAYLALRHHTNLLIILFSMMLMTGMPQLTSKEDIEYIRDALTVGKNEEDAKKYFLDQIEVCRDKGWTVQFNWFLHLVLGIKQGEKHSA

Chain of Aurora B (Q96GD4 whole entry): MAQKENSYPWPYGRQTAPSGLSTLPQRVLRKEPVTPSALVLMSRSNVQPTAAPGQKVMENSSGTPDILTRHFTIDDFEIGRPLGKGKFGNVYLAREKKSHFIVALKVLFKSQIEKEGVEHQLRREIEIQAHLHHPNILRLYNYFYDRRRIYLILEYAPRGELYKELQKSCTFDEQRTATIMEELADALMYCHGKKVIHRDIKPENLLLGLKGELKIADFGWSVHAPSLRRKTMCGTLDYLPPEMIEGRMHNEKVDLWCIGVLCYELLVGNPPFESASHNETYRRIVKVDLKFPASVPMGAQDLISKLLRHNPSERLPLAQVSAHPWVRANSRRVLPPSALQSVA

Cc1[nH]nc2ccc(-c3cncc(OC[C@@H](N)Cc4ccccc4)c3)cc12 [A-674563]
Effect (Clearance Screen) [1]: Suppressed HIV^b

O=C(NC1CCNCC1)c1[nH]ncc1NC(=O)c1c(Cl)cccc1Cl [AT7519]
Effect (Phenocopy Screen) [2]: Toxic in response

CCN1CCN(C(=O)Cc2ccc(Nc3ncc(F)c(Nc4ccc(C(=O)Nc5ccccc5Cl)cc4)n3)cc2)CC1 [Aurora A inhibitor I]
IC50 ([3]; Aurora A): 3.4 nM
B/A ratio ([3]; Aurora B / Aurora A selectivity): 1000
Effect (Phenocopy Screen) [2]: Toxic in response
IC50 [4]: 3400 nM

COC(=O)c1ccc2c(c1)NC(=O)/C2=C(\Nc1ccc(N(C)C(=O)CN2CCN(C)CC2)cc1)c1ccccc1 [BIBF1120 (Vargatef)]
Effect (Phenocopy Screen) [2]: Suppressed HIV^a

N.N.[Cl][Pt][Cl] [Cisplatin]
Effect (Clearance Screen) [1]: Suppressed HIV^b

CC1(COc2ccc3c(c2)ncn3-c2ccc3cccc(N4CCC(N)CC4)c3n2)COC1 [Crenolanib (CP-868596), Crenolanib]
Effect (Phenocopy Screen) [2]: Toxic in response

Cc1c2oc3c(C)ccc(C(=O)N[C@@H]4C(=O)N[C@H](C(C)C)C(=O)N5CCC[C@H]5C(=O)N(C)CC(=O)N(C)[C@@H](C(C)C)C(=O)O[C@@H]4C)c3nc-2c(C(=O)N[C@@H]2C(=O)N[C@H](C(C)C)C(=O)N3CCC[C@H]3C(=O)N(C)CC(=O)N(C)[C@@H](C(C)C)C(=O)O[C@@H]2C)c(N)c1=O [Dactinomycin] (I: T[dV]P[Sar][NMeV] / II: T[dV]P[Sar][NMeV]; ester I:1-I:C, II:1-II:C; linker I:N-II:N via Actinocin(9to1))
Effect (Clearance Screen) [1]: Suppressed HIV^b

C[C@@H](CN1CC(=O)NC(=O)C1)N1CC(=O)NC(=O)C1 [Dexrazoxane]
Effect (Clearance Screen) [1]: Suppressed HIV^b

C#Cc1cccc(Nc2ncnc3cc(OCCOC)c(OCCOC)cc23)c1 [Erlotinib hydrochloride]
Effect (Phenocopy Screen) [2]: Toxic in response

CO[C@H]1C[C@@H]2CC[C@@H](C)[C@@](O)(O2)C(=O)C(=O)N2CCCC[C@H]2C(=O)O[C@H]([C@H](C)C[C@@H]2CC[C@@H](OCCO)[C@H](OC)C2)CC(=O)[C@H](C)/C=C(\C)[C@@H](O)[C@@H](OC)C(=O)[C@H](C)C[C@H](C)/C=C/C=C/C=C/1C [Everolimus]
Effect (Clearance Screen) [1]: Suppressed HIV^b

O=c1[nH]c(=O)n([C@H]2C[C@H](O)[C@@H](CO)O2)cc1F [Floxuridine]
Effect (Phenocopy Screen) [2]: Toxic in response

COc1cc2c(Oc3ccc(NC(=O)C4(C(=O)Nc5ccc(F)cc5)CC4)cc3F)ccnc2cc1OCCCN1CCOCC1 [Foretinib]
Effect (Phenocopy Screen) [2]: Suppressed HIV^a

COc1ncc(-c2ccc3nccc(-c4ccnnc4)c3c2)cc1NS(=O)(=O)c1ccc(F)cc1F [GSK2126458]
Effect (Phenocopy Screen) [2]: Suppressed HIV^a

COc1cc2ncnc(Nc3ccc(F)c(Cl)c3)c2cc1OCCCN1CCOCC1 [Gefitinib]
Effect (Phenocopy Screen) [2]: Toxic in response

O=P1(NCCCl)OCCCN1CCCl (centres unmarked) [Ifosfamide]
Effect (Clearance Screen) [1]: Suppressed HIV^b

c1ccc2c(-c3cnn4cc(-c5ccc(N6CCNCC6)cc5)cnc34)ccnc2c1 [LDN193189]
Effect (Phenocopy Screen) [2]: Toxic in response

Cc1ccc(C(=O)Nc2cccc(C(F)(F)F)c2)cc1Nc1nc(-c2cccnc2)nc2c1cnn2C [NVP-BHG712]
Effect (Phenocopy Screen) [2]: Suppressed HIV^a

Cc1ccc([N+](=O)[O-])cc1S(=O)(=O)N(C)/N=C/c1cnc2ccc(Br)cn12 [PIK-75]
IC50 [5]: 76 nM
Effect (Phenocopy Screen) [2]: Toxic in response

Cc1ccc(C(=O)Nc2ccc(CN3CCN(C)CC3)c(C(F)(F)F)c2)cc1C#Cc1cnc2cccnn12 [Ponatinib]
Effect (Phenocopy Screen) [2]: Suppressed HIV^a

Cc1nnc(C(=O)NC(C)(C)c2nc(C(=O)NCc3ccc(F)cc3)c(O)c(=O)n2C)o1 [Raltegravir]
HIV replication (positive control phenotype) ([2]; 10 uM, added 24 hour prior to exposure to HIV): suppressed HIV replication

CC(C)(C)c1cnc(CSc2cnc(NC(=O)C3CCNCC3)s2)o1 [SNS-032 (BMS-387032)]
Effect (Phenocopy Screen) [2]: Toxic in response

CN1CCN(CCOc2cc(OC3CCOCC3)c3c(Nc4c(Cl)ccc5c4OCO5)ncnc3c2)CC1 [Saracatinib]
Effect (Phenocopy Screen) [2]: Suppressed HIV^a

Cn1nnc2c(C(N)=O)ncn2c1=O [Temozolomide]
Effect (Phenocopy Screen) [2]: Suppressed HIV^a

O=C1CCC(N2C(=O)c3ccccc3C2=O)C(=O)N1 (centres unmarked) [Thalidomide]
Effect (Phenocopy Screen) [2]: Suppressed HIV^a

CCCS(=O)(=O)Nc1ccc(F)c(C(=O)c2c[nH]c3ncc(-c4ccc(Cl)cc4)cc23)c1F [Vemurafenib]
Effect (Clearance Screen) [1]: Suppressed HIV^b

CC[C@]1(O)C[C@H]2CN(CCc3c([nH]c4ccccc34)[C@@](C(=O)OC)(c3cc4c(cc3OC)N(C=O)[C@H]3[C@@](O)(C(=O)OC)[C@H](OC(C)=O)[C@]5(CC)C=CCN6CC[C@]43[C@@H]65)C2)C1 [Vincristine sulfate]
Effect (Phenocopy Screen) [2]: Suppressed HIV^a

O=C(CCCCCCC(=O)Nc1ccccc1)NO [Vorinostat]
Effect (Phenocopy Screen) [2]: Toxic in response

C=CC(=O)Nc1cccc(Oc2nc(Nc3ccc(N4CCN(C)CC4)cc3OC)ncc2Cl)c1 [WZ4002]
Effect (Phenocopy Screen) [2]: Suppressed HIV^a
